Experiments:
[1] = tested on: mice; assay: In vivo delivery of Ffluc mRNA LNP in mice, intravenous administration, luminescence relative to MC3; parameters: species or system mice (female Balb/C); details: fold change in luminescence intensity relative to MC3; 0.06 mg/kg tail vein; 6 h after injection
Procedure: The prepared encapsulation solution was applied to mice in the following manner, and its delivery efficiency in mice was tested. Among them, DLin-MC3-DMA (MC3) was a cationic liposome for delivering small nucleic acids that was approved by the FDA for marketing in 2018, which has high nucleic acid drug delivery efficiency and biosafety, and was usually used as the industry gold standard in the screening process of cationic lipids. In the evaluation of mice experiments, the ratio of nucleic acid delivery efficiency normalized to MC3 was greater than 0.1, which was considered to be a cationic lipid with high delivery efficiency.
1. The LNP solution was diluted with 50 mM TBS, pH 7.4 to a concentration of 0.1 mg/mL mRNA.
2. The mice involved in this study were female Balb/C, weighing 18-22 g, 6-8 weeks old, with 5 mice in each group.
3. The dosing solution was kept at 4° C. prior to injection.
4. Each mice received 0.06 mg/kg via tail vein injection.
5. The mice were injected intraperitoneally with 200 μL of 1.5 mg/mL D-luciferin solution 6 h after injection.
6. The in vivo luminescence images of the mice were obtained using the IVIS system (Aniview).
7. The luminescence intensity of each mice was measured using Aniview software.
8. MC3 lipid nanoparticles were used as a positive control. The in vivo efficacy of each cationic lipid tested was recorded as the fold change in luminescence intensity relative to MC3 (ratio normalized to MC3).

[2] = mRNA encapsulation efficiency of LNP by Ribogreen assay; format: physicochemical; details: LNP: 50% cationic lipid, 38.5% cholesterol, 10% DSPC, 1.5% DMG-PEG2000; Ffluc mRNA
Procedure: (§1) 1. The cationic lipid (50 mg/mL) prepared in the above examples of the present disclosure, cholesterol (20 mg/mL), DSPC (20 mg/mL) and DMG-PEG2000 (20 mg/mL) were dissolved in ethanol, and the solution was placed in a 55° C. metal thermostatic bath as needed to aid dissolution, to obtain a lipid mixture with the following molar composition: 1.5% DMG-PEG2000, 50% cationic lipid, 38.5% cholesterol, and 10% DSPC.
(§2) 2. The mRNA encoding Ffluc was diluted with 10 mM pH 4.0 citrate buffer to prepare a 0.2 mg/mL mRNA solution.
(§3) 3. The lipid mixture prepared in step 1 was mixed with the mRNA solution prepared in step 2 using a syringe pump with a tee at a total flow rate of 40 mL/min.
(§4) 4. The LNP mixture was collected after the three-way mixing and placed in a dialysis bag with a molecular weight cut-off of 100 KDa.
(§5) 5. The LNP mixture was dialyzed overnight against 50 mM Tris-buffered saline, pH 7.4.
(§6) 6. Sieving, and subsequent measurement of the sieved LNP to measure the PDI of the LNP by dynamic laser light scattering; to measure the mRNA encapsulation efficiency and concentration by Ribogreen assay; and to measure the pKa by TNS-α assay.

[3] = LNP size and PDI by dynamic laser light scattering; format: physicochemical; details: LNP: 50% cationic lipid, 38.5% cholesterol, 10% DSPC, 1.5% DMG-PEG2000; Ffluc mRNA
Procedure: as §1, §2, §3, §4, §5, §6

3-((((2-(dimethylamino)ethoxy)carbonyl)oxy)-2-((((E)-3-hexylundec-2-enoyl)oxy)methyl)propyl(97,127)-octadeca-9,12-dienoate [CPL-203]
In Vivo Efficacy Normalized To Mc3 In Mice (Intravenous Injection) [1]: 0.23

CCCCC/C=C\C/C=C\CCCCCCCC(=O)OCC(COC(=O)C=C(CCCCCCCCC)CCCCCCCCC)COC(=O)OCCCN(CC)CC (centres unmarked) [CPL-001-01, 3-(((3-(diethylamino)propoxy)carbonyl)oxy)-2-(((3-nonyldodec-2-enoyl)oxy)methyl)propyl(9Z,12Z)-octadeca-9,12-dienoate]
Encapsulation Rate [2]: 96%
In Vivo Efficacy Normalized To Mc3 In Mice (Intravenous Injection) [1]: 2.00
PDI [3]: 0.0594
Size (nm) [3]: 62.9 nm

CCCCCCCC/C(=C/C(=O)OCCCCCN(CCCCO)CCCCCOC(=O)/C=C(\CCCCCC)CCCCCCCC)CCCCCC [CPL-003, ((4-hydroxybutyl)azanediyl)bis(pentane-5,1-diyl)(2E,2′E)-bis(3-hexylundec-2-enoate)]
Encapsulation Rate [2]: 92%
In Vivo Efficacy Normalized To Mc3 In Mice (Intravenous Injection) [1]: 1.55
PDI [3]: 0.205
Size (nm) [3]: 98 nm

CCCCCCC/C(=C/C(=O)OCCCCN(CCCO)CCCCOC(=O)/C=C(\CCCCCC)CCCCCCC)CCCCCC [CPL-031, ((3-hydroxypropyl)azanediyl)bis(butane-4,1-diyl) (2E,2′E)-bis(3-hexyldec-2-enoate)]
Encapsulation Rate [2]: 94%
In Vivo Efficacy Normalized To Mc3 In Mice (Intravenous Injection) [1]: 0.75
PDI [3]: 0.2448
Size (nm) [3]: 92.39 nm

CCCCCCCC/C(=C\C(=O)OCCCCN(CCCO)CCCCOC(=O)/C=C(/CCCCCCC)CCCCCCCC)CCCCCCC [CPL-032, ((3-hydroxypropyl)azanediyl)bis(butane-4,1-diyl)(2Z,2′Z)-bis(3-heptylundec-2-enoate)]
Encapsulation Rate [2]: 91%
In Vivo Efficacy Normalized To Mc3 In Mice (Intravenous Injection) [1]: 1.18
PDI [3]: 0.1692
Size (nm) [3]: 90.11 nm

CCCCCCCC/C(=C/C(=O)OCCCCCN(CCCO)CCCCCOC(=O)/C=C(\CCC)CCCCCCCC)CCC [CPL-039, ((3-hydroxypropyl)azanediyl)bis(pentane-5,1-diyl)(2E,2′E)-bis(3-propylundec-2-enoate)]
Encapsulation Rate [2]: 94%
In Vivo Efficacy Normalized To Mc3 In Mice (Intravenous Injection) [1]: 1.44
PDI [3]: 0.2202
Size (nm) [3]: 97.61 nm

CCCCCCCC/C(=C/C(=O)OCCCCCN(CCCO)CCCCCOC(=O)/C=C(\CCCC)CCCCCCCC)CCCC [CPL-043, ((3-hydroxypropyl)azanediyl)bis(pentane-5,1-diyl)(2E,2′E)-bis(3-butylundec-2-enoate)]
Encapsulation Rate [2]: 95%
In Vivo Efficacy Normalized To Mc3 In Mice (Intravenous Injection) [1]: 1.58
PDI [3]: 0.1723
Size (nm) [3]: 77.48 nm

CCCCCCCCCC/C(=C/C(=O)OCCCCCN(CCCO)CCCCCOC(=O)/C=C(\CCCC)CCCCCCCCCC)CCCC [CPL-044, ((3-hydroxypropyl)azanediyl)bis(pentane-5,1-diyl)(2E,2′E)-bis(3-butyltridec-2-enoate)]
Encapsulation Rate [2]: 98%
In Vivo Efficacy Normalized To Mc3 In Mice (Intravenous Injection) [1]: 1.26
PDI [3]: 0.15
Size (nm) [3]: 78.4 nm

CCCCCCCC/C(=C/C(=O)OCCCCCCN(CCCO)CCCCCCOC(=O)/C=C(\CCCCC)CCCCCCCC)CCCCC [CPL-047, ((3-hydroxypropyl)azanediyl)bis(hexane-6,1-diyl) (2E,2′E)-bis(3-pentylundec-2-enoate)]
Encapsulation Rate [2]: 96%
In Vivo Efficacy Normalized To Mc3 In Mice (Intravenous Injection) [1]: 1.59
PDI [3]: 0.25
Size (nm) [3]: 114.7 nm

CCCCC/C=C\C/C=C\CCCCCCCC(=O)OCC(COC(=O)/C=C(\CCCCCCC)CCCCCCCC)COC(=O)OCCN(C)C (centres unmarked) [CPL-208, 3-(((2-(dimethylamino)ethoxy)carbonyl)oxy)-2-((((E)-3-heptylundec-2-enoyl)oxy)methyl)propyl(9Z,12Z)-octadeca-9,12-dienoate]
Encapsulation Rate [2]: 95%
PDI [3]: 0.2382
Size (nm) [3]: 96.3 nm

CCCCC/C=C\C/C=C\CCCCCCCC(=O)OCC(COC(=O)C=C(CCCCCCCCCC)CCCCCCCCCC)COC(=O)OCCCN(C)C (centres unmarked) [CPL-234, 3-((3-decyltridec-2-enoyl)oxy)-2-((((3-(dimethylamino)propoxy)carbonyl)oxy)methyl)propyl(9Z,12Z)-octadeca-9,12-dienoate]
In Vivo Efficacy Normalized To Mc3 In Mice (Intravenous Injection) [1]: 0.96

CCCCC/C=C\C/C=C\CCCCCCCC(=O)OCC(COC(=O)/C=C(\CCC)CCCCCC)COC(=O)OCCC1CCN(C)CC1 (centres unmarked) [CPL-280, 3-(((2-(1-methylpiperidin-4-yl)ethoxy)carbonyl)oxy)-2-((((E)-3-propylnon-2-enoyl)oxy)methyl)propyl(9Z,12Z)-octadeca-9,12-dienoate]
Encapsulation Rate [2]: 97%
PDI [3]: 0.2607
Size (nm) [3]: 119.6 nm

CCCCC/C=C\C/C=C\CCCCCCCC(=O)OCC(COC(=O)/C=C(\CCCCC)CCCCCCCC)COC(=O)OCCC1CCN(C)CC1 (centres unmarked) [CPL-289, 3-(((2-(1-methylpiperidin-4-yl)ethoxy)carbonyl)oxy)-2-((((E)-3-pentylundec-2-enoyl)oxy)methyl)propyl(9Z,12Z)-octadeca-9,12-dienoate]
Encapsulation Rate [2]: 97%
PDI [3]: 0.1371
Size (nm) [3]: 83 nm

CCCCC/C=C\C/C=C\CCCCCCCC(=O)OCC(COC(=O)/C=C(\CCCCC)CCCCCCCCCC)COC(=O)OCCC1CCN(C)CC1 (centres unmarked) [CPL-290]
Encapsulation Rate [2]: 98%
PDI [3]: 0.1615
Size (nm) [3]: 105.5 nm

CCCCC/C=C\C/C=C\CCCCCCCC(=O)OCC(COC(=O)/C=C(\CCCC)CCCCC)COC(=O)OCC(C)(C)CN(C)C (centres unmarked) [CPL-309, 3-(((E)-3-butyloct-2-enoyl)oxy)-2-((((3-(dimethylamino)-2,2-dimethylpropoxy)carbonyl)oxy)methyl)propyl(9Z,12Z)-octadeca-9,12-dienoate]
Encapsulation Rate [2]: 93%
PDI [3]: 0.0937
Size (nm) [3]: 76.44 nm

CCCCC/C=C\C/C=C\CCCCCCCC(=O)OCC(COC(=O)/C=C(\CCCC)CCCCCCC)COC(=O)OCC(C)(C)CN(C)C (centres unmarked) [CPL-316, 3-(((E)-3-butyldec-2-enoyl)oxy)-2-((((3-(dimethylamino)-2,2-dimethylpropoxy)carbonyl)oxy)methyl)propyl(9Z,12Z)-octadeca-9,12-dienoate]
Encapsulation Rate [2]: 93%
PDI [3]: 0.1387
Size (nm) [3]: 75.82 nm

CCCCC/C=C\C/C=C\CCCCCCCC(=O)OCC(COC(=O)C=C(CCCCCCCCCC)CCCCCCCCCC)COC(=O)OCC(C)(C)CN(C)C (centres unmarked) [CPL-322, 3-((3-decyltridec-2-enoyl)oxy)-2-((((3-(dimethylamino)-2,2-dimethylpropoxy)carbonyl)oxy)methyl)propyl(9Z,12Z)-octadeca-9,12-dienoate]
Encapsulation Rate [2]: 94%
PDI [3]: 0.1302
Size (nm) [3]: 96.21 nm

CCCCC/C=C\C/C=C\CCCCCCCC(=O)OCC(COC(=O)/C=C(\CCCCC)CCCCCC)COC(=O)OCCCN1CCN(C)CC1 (centres unmarked) [CPL-398, 3-(((3-(4-methylpiperazin-1-yl)propoxy)carbonyl)oxy)-2-((((E)-3-pentylnonan-2-enoyl)oxy)methyl)propyl(9Z,12Z)-octadeca-9,12-dienoate]
Encapsulation Rate [2]: 97%
PDI [3]: 0.0778
Size (nm) [3]: 115.7 nm

CCCCC/C=C\C/C=C\CCCCCCCC(=O)OCC(COC(=O)/C=C(/CCCCCCCC)CCCCCCCCCC)COC(=O)OCCCN1CCN(C)CC1 (centres unmarked) [CPL-409, 3-(((3-(4-methylpiperazin-1-yl)propoxy)carbonyl)oxy)-2-((((Z)-3-octyltridec-2-enoyl)oxy)methyl)propyl(9Z 12Z)-octadeca-9,12-dienoate]
Encapsulation Rate [2]: 96%
PDI [3]: 0.1474
Size (nm) [3]: 94.97 nm

CCCCCC/C(=C/C(=O)OCCCCCCCCN(CCO)CCCCCCCCOC(=O)/C=C(\CCCC)CCCCCC)CCCC [CPL-455-01, ((2-hydroxyethyl)azanediyl)bis(octane-8,1-diyl) (2E,2′E)-bis(3-butylnon-2-enoate)]
Encapsulation Rate [2]: 85%
PDI [3]: 0.1065
Size (nm) [3]: 69.76 nm

CCCCCCCCCC/C(=C/C(=O)OCCCCCN(CCCO)CCCCCOC(=O)/C=C(\CCCC)CCCCCCCCCC)CCC [CPL-1092]
In Vivo Efficacy Normalized To Mc3 In Mice (Intravenous Injection) [1]: 0.83
